Reference: PMC12704298, “Divergent acetyl-CoA binding modes mediate allosteric inhibition of bacterial hybrid-type malic enzymes” (The Journal of Biological Chemistry, 2025)

What was measured:
[1] = test system: DME; design: method as in PMID 10407149; details: cited from earlier work
[2] = target: T1, EcMaeB (Escherichia coli, UniProt P76558); test: Enzyme kinetic parameters (Michaelis-Menten, substrate inhibition, empirical Hill plots); format: biochemical
T1 construct: His-tag (C); made in house; host or cells: E. coli BL21(DE3)
T1 sequence (P76558 1-759): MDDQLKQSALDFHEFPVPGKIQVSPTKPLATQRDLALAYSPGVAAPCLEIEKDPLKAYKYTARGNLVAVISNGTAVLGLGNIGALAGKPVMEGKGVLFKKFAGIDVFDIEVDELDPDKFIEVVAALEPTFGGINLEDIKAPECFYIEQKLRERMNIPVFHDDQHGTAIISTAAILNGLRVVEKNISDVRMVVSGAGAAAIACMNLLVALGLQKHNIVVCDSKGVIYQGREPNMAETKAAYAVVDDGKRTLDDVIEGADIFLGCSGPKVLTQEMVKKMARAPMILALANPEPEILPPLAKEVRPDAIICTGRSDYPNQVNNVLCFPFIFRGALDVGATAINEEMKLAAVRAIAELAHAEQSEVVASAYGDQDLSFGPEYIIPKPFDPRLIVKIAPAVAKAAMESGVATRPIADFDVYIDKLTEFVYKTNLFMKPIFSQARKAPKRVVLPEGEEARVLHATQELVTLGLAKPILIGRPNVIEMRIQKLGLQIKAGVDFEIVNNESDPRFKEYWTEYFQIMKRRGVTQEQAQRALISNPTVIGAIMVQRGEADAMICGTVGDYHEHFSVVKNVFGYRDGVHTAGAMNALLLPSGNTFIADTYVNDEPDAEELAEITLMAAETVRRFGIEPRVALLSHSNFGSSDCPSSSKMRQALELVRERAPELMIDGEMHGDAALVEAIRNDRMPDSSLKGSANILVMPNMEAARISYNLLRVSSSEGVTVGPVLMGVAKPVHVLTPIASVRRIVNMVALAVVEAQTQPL
Experimental: (§1) Spectrophotometric assays were used to monitor the oxidative decarboxylation of L-malate to pyruvate using a SpectraMax M2, UV-Visible spectrophotometer (Molecular Devices) operated by SoftMax Pro Software with kinetic mode. All assays recorded the Δabsorbance at 340 nm (NADPH) at 30 °C. Assays were initiated by the addition of enzyme to the otherwise complete reaction mixture. […] Acetyl-CoA was tested at 5 μM.
(§2) For this substrate inhibition model, x should be fixed. […] The plots shown in Fig. S1F were fitted to the empirical Hill equation: v0=Vmax·[malate]^h/(K0.5h+[malate]^h) where K0.5 indicates the substrate concentration for half-saturation. When h is equal to 1, K0.5 matches Michaelis constant Km.

[3] = target: T1, EcMaeB; design: method as in PMID 17557829; details: previous study; cited from earlier work
[4] = target: T2, BbMaeB (Bdellovibrio bacteriovorus, UniProt A0A1Z3N8R4); test: Enzyme kinetic parameters (Michaelis-Menten, substrate inhibition, empirical Hill plots); format: biochemical, Bdellovibrio bacteriovorus strain SSB218315
T2 sequence (A0A1Z3N8R4 1-776): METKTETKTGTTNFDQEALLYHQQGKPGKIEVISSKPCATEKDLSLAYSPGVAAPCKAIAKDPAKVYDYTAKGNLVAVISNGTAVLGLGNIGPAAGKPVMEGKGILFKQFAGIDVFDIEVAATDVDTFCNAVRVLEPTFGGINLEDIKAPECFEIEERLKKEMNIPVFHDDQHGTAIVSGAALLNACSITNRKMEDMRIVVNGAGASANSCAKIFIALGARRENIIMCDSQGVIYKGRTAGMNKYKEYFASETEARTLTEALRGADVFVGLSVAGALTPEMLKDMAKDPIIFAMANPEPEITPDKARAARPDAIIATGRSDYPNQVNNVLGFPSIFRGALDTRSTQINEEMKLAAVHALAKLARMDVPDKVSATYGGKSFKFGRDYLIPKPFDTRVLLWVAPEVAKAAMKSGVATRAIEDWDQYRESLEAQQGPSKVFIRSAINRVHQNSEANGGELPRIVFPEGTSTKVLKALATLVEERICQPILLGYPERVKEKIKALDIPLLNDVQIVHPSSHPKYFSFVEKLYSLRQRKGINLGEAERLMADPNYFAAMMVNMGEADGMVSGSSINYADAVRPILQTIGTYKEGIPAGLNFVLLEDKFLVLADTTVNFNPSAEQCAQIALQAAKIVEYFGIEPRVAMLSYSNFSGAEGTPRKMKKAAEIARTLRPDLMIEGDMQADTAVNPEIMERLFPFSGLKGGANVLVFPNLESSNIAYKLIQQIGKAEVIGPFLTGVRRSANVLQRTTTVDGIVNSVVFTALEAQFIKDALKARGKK
Experimental: as §1, §2

[5] = substrate: O=C(O)C[C@H](O)C(=O)O; test: as above; format: biochemical, Escherichia coli; details: other: EcMaeB; substrate inhibition plot, NADP+ fixed 0.5 mM, without acetyl-CoA; pH 7.5; 30.0 °C
[6] = target: the molecule itself; test: crystal structure; EcMaeB without cofactors and acetyl-CoA; 20 mg/ml protein, 0.2 M potassium chloride pH 7.0, 20% v/v PEG 3350, 20 °C; homohexamer
[7] = substrate: O=C(O)C[C@H](O)C(=O)O; test: Enzyme kinetic parameters (Michaelis-Menten, substrate inhibition, empirical Hill plots); format: biochemical, Bdellovibrio bacteriovorus strain SSB218315; details: other: BbMaeB; substrate inhibition plot, NADP+ fixed 0.5 mM, without acetyl-CoA; pH 7.5; 30.0 °C

In the case of `CCCC(=O)SCCNC(=O)CCNC(=O)[C@H](O)C(C)(C)COP(=O)(O)OP(=O)(O)OC[C@H]1O[C@@H](n2cnc3c(N)ncnc32)[C@H](O)[C@@H]1OP(=O)(O)O` [butyryl-CoA], the “effect on DME activity” value [1] is given as “inhibited”.

For `[Mg+2]` [Mg^2+], the “effect of different Mg2+ concentrations on kinetic parameters” value [2] is listed as “no significant changes in kinetic parameters” and the “concentration at which EcMaeB activity is inhibited” value [3] is listed as “above 4 mM”.

In the case of NADP^+, the “change of Km for NADP+ with Mn2+ instead of Mg2+” value ([2]; EcMaeB, 5 mM MnCl2) is reported as “approximately doubled” and the “change of Km for NADP+ with Mn2+ instead of Mg2+” value ([4]; 5 mM MnCl2) is reported as “approximately doubled”.

In the case of `O=C(O)C[C@H](O)C(=O)O` [malate, L-malate], the “K0.5 from the empirical Hill equation” value ([2]; EcMaeB, in the presence of acetyl-CoA, 0.5 mM NADP+, 300 nM enzyme) is reported as 18.1 ± 3.20 mM and the “K0.5 from the empirical Hill equation” value ([4]; in the presence of acetyl-CoA, 0.5 mM NADP+, 300 nM enzyme) is reported as 7.44 ± 1.21 mM.

For `CCC(=O)SCCNC(=O)CCNC(=O)[C@H](O)C(C)(C)COP(=O)(O)OP(=O)(O)OC[C@H]1O[C@@H](n2cnc3c(N)ncnc32)[C@H](O)[C@@H]1OP(=O)(O)O` [propionyl-CoA], the “effect on DME activity” value [1] is given as “inhibited”.

B1: malic enzyme B (MaeB) from Escherichia coli (enzyme, UniProt P76558 1-759, looked up)
chain: T1 sequence (P76558 1-759)
notes: MaeB of E. coli, gene amplified from genomic DNA of strain SHuffle T7; Cloned in pET-28a(+); Homohexamer in the crystal and in cryo-EM; also called EcMaeB; EcMaeBapo; source: E. coli BL21(DE3), purified (HisTrap TALON, size-exclusion chromatography)
In the case of B1, the Km [5] is reported as 20.7 ± 8.83 mM and the “stoichiometry N” value [6] is reported as 6.

B2: BbMaeB (Bdellovibrio bacteriovorus) (protein)
chain: T2 sequence (A0A1Z3N8R4 1-776)
B2 showed a Km [7] of 6.22 ± 1.55 mM.
